Test results as given in ChEMBL document CHEMBL1140535, “Synthesis and evaluation of substituted benzoisoquinolinones as potent inhibitors of Chk1 kinase” (Bioorg Med Chem Lett, 2007).
The source made the active and inactive calls. No cut-off for these calls is given here.

Key:
[1] = target: T1, Serine/threonine-protein kinase Chk1 (Homo sapiens, UniProt O14757); assay: Inhibition of human Chk1 expressed in baculovirus by time-resolved fluorescence assay
T1 sequence (O14757 whole entry): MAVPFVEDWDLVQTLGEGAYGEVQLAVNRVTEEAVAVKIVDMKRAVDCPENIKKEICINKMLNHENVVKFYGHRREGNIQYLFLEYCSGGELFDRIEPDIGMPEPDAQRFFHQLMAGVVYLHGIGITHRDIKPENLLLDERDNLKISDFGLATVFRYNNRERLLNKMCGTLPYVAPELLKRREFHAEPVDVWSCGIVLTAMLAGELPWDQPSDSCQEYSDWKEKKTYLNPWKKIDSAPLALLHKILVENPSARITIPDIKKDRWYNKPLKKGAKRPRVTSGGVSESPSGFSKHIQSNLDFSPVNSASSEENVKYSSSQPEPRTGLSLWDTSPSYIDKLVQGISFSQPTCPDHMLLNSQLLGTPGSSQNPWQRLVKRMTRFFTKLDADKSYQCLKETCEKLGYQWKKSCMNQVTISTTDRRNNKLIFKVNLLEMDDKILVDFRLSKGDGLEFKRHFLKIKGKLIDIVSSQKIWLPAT

[2] = system: NCI-H1299; assay: Inhibition of camptothecin induced mitotic arrest in human NCI-H1299 cells after 18 hrs; format: functional, cell-based; conditions: NCI-H1299, 18 h
[3] = system: HT-29; assay: Effect on apoptosis in HT29 cells assessed as increase in caspase 3 activation after 24 hrs; format: functional, cell-based; conditions: Homo sapiens
[4] = system: HT-29; assay: Effect on apoptosis in HT29 cells assessed as increase in camptothecin induced caspase 3 activation after 24 hrs; format: functional, cell-based; conditions: Homo sapiens

Structure (SMILES) | IC50 [1] [nM] | EC50 [2] [nM] | Activity [3] | Activity [4]
N#CCCc1cc2cc[nH]c(=O)c2c2cc(Cl)ccc12 | 510 |  |  | 
NCCc1cc2cc[nH]c(=O)c2c2cc(Cl)ccc12 | 11 |  |  | 
NCCCc1cc2cc[nH]c(=O)c2c2cc(Cl)ccc12 | 12 | 230 |  | 
O=c1[nH]ccc2ccc3ccc(Cl)cc3c12 | 580 |  |  | 
O=c1[nH]ccc2c3[nH]c(-c4ccccc4)nc3c3ccc(F)cc3c12 | 1080 |  |  | 
N#Cc1cc2cc[nH]c(=O)c2c2cc(Cl)ccc12 | 1060 |  |  | 
O=c1[nH]ccc2c3[nH]c(-c4cccnc4)nc3c3ccc(F)cc3c12 | 110 |  |  | 
CN(C)CCc1cc2cc[nH]c(=O)c2c2cc(Br)ccc12 | 130 |  |  | 
N#Cc1cc2cc[nH]c(=O)c2c2cc(Br)ccc12 | 400 |  |  | 
O=c1[nH]ccc2cc(CCO)c3ccc(Br)cc3c12 | 780 |  |  | 
N#Cc1ccc2c(CCCN)cc3cc[nH]c(=O)c3c2c1 | 25 | 2200 |  | 
CNCCc1cc2cc[nH]c(=O)c2c2cc(Br)ccc12 | 44 |  |  | 
NCCCc1cc2cc[nH]c(=O)c2c2cc(Br)ccc12 | 17 | 310 |  | 
COC(=O)c1cc2cc[nH]c(=O)c2c2cc(Br)ccc12 | 300 |  |  | 
COC(=O)c1cc2cc[nH]c(=O)c2c2cc(Cl)ccc12 | 360 |  |  | 
NCCCc1cc2cc[nH]c(=O)c2c2ccccc12 | 98 |  |  | 
O=c1[nH]ccc2cc(CO)c3ccc(Br)cc3c12 | 440 |  |  | 
O=c1[nH]ccc2c3[nH]cnc3c3ccc(F)cc3c12 | 610 |  |  | 
NCCCc1cc2c(-c3cccc(Cl)c3)c[nH]c(=O)c2c2cc(-c3cn[nH]c3)ccc12 | 11.5 | 1050 |  | 
N#CCCc1cc2cc[nH]c(=O)c2c2cc(Br)ccc12 | 420 |  |  | 

The remaining compounds from weak to strong by IC50 [1], led by results:

IC50 [1] [nM] | EC50 [2] [nM] | Structure (SMILES) | Activity [3] | Activity [4]
11 | > 10000 | NCCCc1cc2cc[nH]c(=O)c2c2cc(C(N)=O)ccc12 |  | 
9.2 | 957 | Cn1cc(-c2ccc3c(CCCN)cc4cc[nH]c(=O)c4c3c2)cn1 |  | 
6.5 | 1080 | NCCCc1cc2cc[nH]c(=O)c2c2cc(-c3ccc(CN)cc3)ccc12 |  | 
4.3 | 150 | NCCCc1cc2cc[nH]c(=O)c2c2cc(-c3ccn[nH]3)ccc12 |  | 
3.7 | 300 | NCCCc1cc2c(-c3cccc(F)c3)c[nH]c(=O)c2c2cc(-c3cn[nH]c3)ccc12 |  | 
3.6 | 210 | C=Cc1c[nH]c(=O)c2c1cc(CCCN)c1ccc(-c3cn[nH]c3)cc12 |  | 
3.5 | 64 | NCCCc1cc2cc[nH]c(=O)c2c2cc(-c3cn[nH]c3)ccc12 |  | 
3.5 | 370 | NCCCc1cc2c(-c3ccc(F)cc3)c[nH]c(=O)c2c2cc(-c3cn[nH]c3)ccc12 |  | 
3 |  | NCCc1cc2cc[nH]c(=O)c2c2cc(Br)ccc12 |  | 
3 | 79 | NCCc1cc2cc[nH]c(=O)c2c2cc(-c3cn[nH]c3)ccc12 | inactive | Active
2.6 | 370 | NCCCc1cc2c(-c3ccccc3F)c[nH]c(=O)c2c2cc(-c3cn[nH]c3)ccc12 |  | 
2.5 | 100 | NCCc1cc2cc[nH]c(=O)c2c2cc(-c3ccn[nH]3)ccc12 |  | 
2.4 | 44 | NCCCc1cc2cc[nH]c(=O)c2c2cc(-c3ccc[nH]3)ccc12 |  | 
2.3 | 140 | NCCCc1cc2c(Br)c[nH]c(=O)c2c2cc(-c3cn[nH]c3)ccc12 |  | 
2 | 230 | NCCCc1cc2c(-c3ccccc3O)c[nH]c(=O)c2c2cc(-c3cn[nH]c3)ccc12 |  | 
2 | 140 | NCCCc1cc2c(-c3ccccc3)c[nH]c(=O)c2c2cc(-c3cn[nH]c3)ccc12 |  | 
2 | > 10000 | CN(C)CCNC(=O)c1ccc2c(CCCN)cc3cc[nH]c(=O)c3c2c1 |  | 
1.2 | 270 | NCCCc1cc2c(-c3ccc(Cl)cc3Cl)c[nH]c(=O)c2c2cc(-c3cn[nH]c3)ccc12 |  | 
1.2 | 320 | NCCCc1cc2c(-c3ccc(Cl)cc3)c[nH]c(=O)c2c2cc(-c3cn[nH]c3)ccc12 |  | 
1 | 67 | NCCCc1cc2c(-c3cccc(O)c3)c[nH]c(=O)c2c2cc(-c3cn[nH]c3)ccc12 |  | 
0.8 | 130 | NCCCc1cc2c(-c3ccccc3Cl)c[nH]c(=O)c2c2cc(-c3cn[nH]c3)ccc12 |  | 
0.6 | 130 | NCCc1cc2cc[nH]c(=O)c2c2cc(-c3ccc(CN4CCOCC4)cc3)ccc12 |  | 
0.5 | 14 | NCCc1cc2cc[nH]c(=O)c2c2cc(-c3ccc[nH]3)ccc12 |  | 
0.3 | 47 | NCCCc1cc2c(-c3ccc(O)cc3)c[nH]c(=O)c2c2cc(-c3cn[nH]c3)ccc12 |  | 
